Activity calls are given as the source filed them. No cut-off for these calls is given here.
Experiments:
Cavia porcellus = test: Cardiotoxicity in anesthetized cardiovascular guinea pig model assessed as prolongation of QTc interval at 3 mg/kg administered as iv infusion relative to control; type: toxicity, organism-based; conditions: in vivo
[1] = Half life in Wistar Han rat at 1 mg/kg, iv or 2 mg/kg, po; conditions: in vivo
[2] = biological target: Sodium channel protein type 5 subunit alpha (Homo sapiens, UniProt Q14524); test: Inhibition of Nav1.5 (unknown origin)
Sequence of Sodium channel protein type 5 subunit alpha (Q14524 whole entry): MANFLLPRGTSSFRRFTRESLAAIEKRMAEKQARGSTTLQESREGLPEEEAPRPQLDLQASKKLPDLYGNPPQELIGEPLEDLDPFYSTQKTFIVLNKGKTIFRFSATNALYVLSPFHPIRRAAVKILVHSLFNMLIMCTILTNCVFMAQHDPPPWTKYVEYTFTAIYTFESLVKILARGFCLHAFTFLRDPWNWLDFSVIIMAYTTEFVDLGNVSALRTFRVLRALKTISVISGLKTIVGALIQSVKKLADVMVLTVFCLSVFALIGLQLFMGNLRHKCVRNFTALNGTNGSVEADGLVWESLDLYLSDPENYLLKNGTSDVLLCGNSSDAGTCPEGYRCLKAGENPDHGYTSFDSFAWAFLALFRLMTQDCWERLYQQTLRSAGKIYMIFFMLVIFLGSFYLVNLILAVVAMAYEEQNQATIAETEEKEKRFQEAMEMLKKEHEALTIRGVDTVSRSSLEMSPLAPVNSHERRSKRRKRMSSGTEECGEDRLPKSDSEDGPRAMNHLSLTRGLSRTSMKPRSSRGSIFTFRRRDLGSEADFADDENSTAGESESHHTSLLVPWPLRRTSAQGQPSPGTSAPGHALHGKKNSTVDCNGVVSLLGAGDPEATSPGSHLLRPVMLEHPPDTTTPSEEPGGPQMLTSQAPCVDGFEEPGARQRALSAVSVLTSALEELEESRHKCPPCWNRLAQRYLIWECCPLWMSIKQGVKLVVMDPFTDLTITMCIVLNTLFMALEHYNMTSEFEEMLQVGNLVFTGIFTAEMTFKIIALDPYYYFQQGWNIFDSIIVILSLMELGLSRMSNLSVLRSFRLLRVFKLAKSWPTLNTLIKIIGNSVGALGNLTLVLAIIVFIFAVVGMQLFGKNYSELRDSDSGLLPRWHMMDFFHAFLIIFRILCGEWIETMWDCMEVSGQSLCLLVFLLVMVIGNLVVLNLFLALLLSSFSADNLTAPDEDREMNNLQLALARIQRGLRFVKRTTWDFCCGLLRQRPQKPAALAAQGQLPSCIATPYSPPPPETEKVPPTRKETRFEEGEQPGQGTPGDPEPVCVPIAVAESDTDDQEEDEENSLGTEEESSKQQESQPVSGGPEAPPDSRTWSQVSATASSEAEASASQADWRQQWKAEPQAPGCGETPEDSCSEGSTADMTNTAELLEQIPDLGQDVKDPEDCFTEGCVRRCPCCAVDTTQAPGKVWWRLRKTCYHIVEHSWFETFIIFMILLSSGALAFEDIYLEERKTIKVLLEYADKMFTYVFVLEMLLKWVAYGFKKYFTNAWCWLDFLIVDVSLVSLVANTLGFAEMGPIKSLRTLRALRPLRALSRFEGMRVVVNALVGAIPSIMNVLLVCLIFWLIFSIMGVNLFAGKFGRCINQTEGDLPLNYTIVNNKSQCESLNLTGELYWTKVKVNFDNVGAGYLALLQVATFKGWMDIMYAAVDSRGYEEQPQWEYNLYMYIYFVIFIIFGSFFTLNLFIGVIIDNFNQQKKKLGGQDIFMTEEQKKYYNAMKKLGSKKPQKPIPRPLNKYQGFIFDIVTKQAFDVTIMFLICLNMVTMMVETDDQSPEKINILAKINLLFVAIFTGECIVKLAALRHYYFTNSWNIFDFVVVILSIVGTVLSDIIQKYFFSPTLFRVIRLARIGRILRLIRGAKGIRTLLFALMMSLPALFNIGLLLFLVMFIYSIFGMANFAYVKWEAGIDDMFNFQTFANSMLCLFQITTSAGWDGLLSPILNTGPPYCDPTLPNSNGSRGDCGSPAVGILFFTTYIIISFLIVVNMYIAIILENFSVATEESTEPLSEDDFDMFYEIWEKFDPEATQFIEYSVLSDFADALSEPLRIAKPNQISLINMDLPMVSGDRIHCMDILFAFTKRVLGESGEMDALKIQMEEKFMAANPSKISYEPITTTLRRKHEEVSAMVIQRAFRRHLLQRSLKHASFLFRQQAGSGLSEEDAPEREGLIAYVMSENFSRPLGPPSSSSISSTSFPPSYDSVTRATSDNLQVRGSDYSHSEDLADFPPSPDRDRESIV

[3] = Volume of distribution at steady state in Wistar Han rat at 1 mg/kg, iv or 2 mg/kg, po; conditions: in vivo
Rattus norvegicus [4] = test: Antihypertensive activity in rat spontaneous hypertensive model assessed as induction of diuresis at 3 mg/kg, po qd measured after 3 days; type: functional, organism-based
[5] = biological target: T1, Nuclear receptor subfamily 1 group I member 2 (Homo sapiens, UniProt O75469); test: Activity at PXR (unknown origin) assessed as CYP induction
T1 sequence (O75469 whole entry): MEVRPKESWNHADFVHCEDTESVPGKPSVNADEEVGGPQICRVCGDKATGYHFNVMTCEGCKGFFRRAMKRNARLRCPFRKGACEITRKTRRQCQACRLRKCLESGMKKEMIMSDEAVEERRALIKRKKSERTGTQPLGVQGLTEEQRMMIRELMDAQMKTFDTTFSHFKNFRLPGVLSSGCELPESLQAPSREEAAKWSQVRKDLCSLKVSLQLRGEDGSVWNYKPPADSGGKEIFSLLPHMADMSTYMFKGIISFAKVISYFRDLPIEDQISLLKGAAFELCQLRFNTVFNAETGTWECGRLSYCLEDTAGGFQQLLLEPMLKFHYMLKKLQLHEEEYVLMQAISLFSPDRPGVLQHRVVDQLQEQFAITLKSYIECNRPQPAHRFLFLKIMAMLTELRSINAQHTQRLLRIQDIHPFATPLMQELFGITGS

Rattus norvegicus [6] = test: Antihypertensive activity in rat spontaneous hypertensive model assessed as induction of natriuresis at 3 mg/kg, po qd measured after 3 days; type: functional, organism-based
[7] = Fraction unbound in rat plasma; type: ADME, cell-free

With `Cc1c([C@@H](O)CN2CCC3(CC2)CCN(c2ccc(=O)n(C)n2)C3=O)ccc2c1COC2=O` the Activity (Cavia porcellus) was 9%, the half-life [1] was 168 min and the IC50 [2] was greater than 30 µM. For the same molecule, the Vd [3] was 3.3 L/kg, the Activity (Rattus norvegicus [4]) was “Active” and the IC50 [5] was greater than 30 µM. For the same molecule, the Activity (Rattus norvegicus [6]) was “Active” and the fraction unbound [7] was 0.455.

Reference: ChEMBL document CHEMBL4028831, “Improvement of hERG-ROMK index of spirocyclic ROMK inhibitors through scaffold optimization and incorporation of novel pharmacophores” (Bioorg Med Chem Lett, 2017)
